Legend:
mice SAM P 10 [1] = test: Anxiolytic activity: elevated criss-cross labyrinth in mice SAM P10; assay type: in vivo; conditions: 5 minutes observation
Excerpt: (Takeda T. et al. Senescence-Accelerated Mouse (SAM): A novel murine model of accelerated senescence. J. Amer. Geriatr. Soc. 1991, v. 39, p. 911-919). The animals belonging to this line are characterized by genetically determined depression and impairment of learning capacity, these symptoms intensively aggravate since 6 months of age (accelerated senescence) (Miyamoto M., Characteristics of age-related behavioral changes in senescence-accelerated mouse SAMP8 and SAMP10. Exp. Gerontolol. 1997, v. 32, p. 139-148; Shimada A. et al. Age-related deterioration in conditional avoidance task in the SAM-P/10 mouse, an animal model of spontaneous brain atrophy. Brain Res., 1993, v. 608, p. 266-272). Assessment of anxiety level of the mice was carried out under conditions of “elevated criss-cross labyrinth” (ECCL) method (Pellow S. et al. Validation of open:closed arm entries in elevated plus-maze as a measure of anxiety in the rat. Neurosci Meth J. 1985, No 14, p. 149-167; Voronina T. A. et al. “Textbook for Experimental (Preclinical Study) of novel pharmacological compounds”. Moscow, Medicina. 2005, p. 253-263). Labyrinth comprises crossed bands 5×45 cm, with two opposed compartments having vertical walls 30 cm height (closed, dark arms), and two other compartments are open, light arms. Labyrinth is situated 30 cm above the floor. Central platform […] is located at the cross of the planes. The mice were placed on the central platform with their tails directed to light arm. Time spent by the animals in open and closed arms, and the number of entering light and dark arms was registered. Total observation period comprised 5 minutes for each animal. Time spent in the open arms of the unit was considered as the measure of anxiolytic effect.

mice SAM P 10 [2] = test: Antidepressant activity: forced swimming in mice SAM; assay type: in vivo; conditions: first 6 minutes of forced swimming
Protocol: Exp. Gerontolol. 1997, […]. et al. Age-related deterioration in conditional avoidance task in the SAM-P/10 mouse, an animal model of spontaneous brain atrophy. Brain Res., 1993, v. 608, p. 266-272). To assess depressive condition the method of forced swimming was used (Porsolt R. D. et al., Behavioral despair in rats: a new model sensitive to antidepressant treatment. Europ. J. […] The mice were placed into cylinder 10 cm in diameter and 25 cm height. Cylinder was filled with water by 1⁄3 (27° C.). After unsuccessful attempts to get out of the water the animals have typical immovable posture, which is regarded as manifestation of “despair”.

[3] = test system: white nondescript male mice; test: in vivo; conditions: white nondescript (outbred), mouse, ip, 2 days
Protocol: The study of acute daily toxicity of Compound I was carried out on white nondescript male mice with body weight 25-28 g, which lived in habitual conditions in vivarium and received feed and water ad libitum. Single dose of Compound I was administered intraperitoneally. The animals were under observation for 2 days after the dosing. The dose levels of Compound I used in the toxicity study were as follows: 800 mg/kg, 1000 mg/kg, 1200 mg/kg, 1500 mg/kg, 1600 mg/kg. Compound I was dissolved in distilled water and administered in 0, 1 ml per 10 g of the body weight of the animal when the doses 800 mg/kg and 1000 mg/kg, and in 0.2 ml per 10 g of the body weight when the doses 1200 mg/kg, 1500 mg/kg, 1600 mg/kg were used. Control animals received distilled water in the volume 0.2 ml per 10 g of the body weight.
Each dose group comprised 10 animals.

[4] = test system: rats with massive cortical ischemia; test: Model of massive cortical ischemia (occlusion of middle cerebral artery): ischemic damage of cerebral cortex; assay type: in vivo; conditions: for Intensity of ischemic damage of cerebral cortex (slice score, points), slice 1 / Intensity of ischemic damage of cerebral cortex (slice score, points), slice 2 / Intensity of ischemic damage of cerebral cortex (slice score, points), slice 3 / Intensity of ischemic damage of cerebral cortex (slice score, points), slice 4 / Intensity of ischemic damage of cerebral cortex (slice score, points), slice 5: 72 hours after OMCA
Protocol: White nondescript male rats with body weight 350-450 g anesthetized with chloral hydrate (400 mg/kg, intraperitoneally) were used in the experiments. After ligation of left carotid occlusion of middle cerebral artery (OMCA) was made under the microscope (magnification 14.0×3.3) proximal to bifurcation to frontal and parietal branches (S. T. Chen et al., Stroke, 1986, v. 17, No 4, p. 738-743).
After the surgery the animals were randomized into 3 groups. Experimental animals received Compound I or nooglutyl intraperitoneously 30 minutes, 2, 24, and 48 hours after the surgery. Control animals at the same time points received saline (0.9% sodium chloride solution). 72 hours after OMCA the animals were decapitated. Material frozen at −20° C. was used for preparation of 5 frontal slices 2.5 mm thick, which were painted with 2,3,5-triphenyltetrazolium solution (TPTZ). Auc1 morphometric program was used to perform planimetria, determination of affected zone extent and percentage of affected zone extent in relation to volume of ipsilateral hemisphere. The surgery results in creation of vast ischemic damage of the brain cortex, which is localized within frontal-parietal and dorsal-lateral zones. To compare intensity of the changes in different slices arbitrary scale was used, with 75%, 60%, 45%, 20%, 5%, and 0% affection of hemisphere assessed as 2.5 points, 2 points, 1.5 points, 1 point, 0.5 points, and 0 points, respectively.

[5] = 40 mg/kg intraperitoneally 30 minutes, 2, 24, 48 hours after surgery
[6] = 50 mg/kg intraperitoneally 30 minutes, 2, 24, 48 hours after surgery

With O=C([O-])CC[C@H](NC(=O)c1cncc(O)c1)C(=O)[O-].[Ca+2] [Compound I, Calcium N-(5-hydroxynicotinoyl)-L-glutamate] the “Number of entries the closed arms” value (mice SAM P 10 [1]; 5 mg/kg) was 15.6 ± 2.1, the “Number of entries the opened arms” value (mice SAM P 10 [1]; 5 mg/kg) was 5.7 ± 0.6 and the “Time spent in the closed arms (c)” value (mice SAM P 10 [1]; 5 mg/kg) was 247.0 ± 6.4 c. For the same molecule, the “Time spent in the opened arms (c)” value (mice SAM P 10 [1]; 5 mg/kg) was 21.1 ± 4.6 c, the “Number of entries the closed arms” value (mice SAM P 10 [1]; 10 mg/kg) was 20.51 ± 3.1 and the “Number of entries the opened arms” value (mice SAM P 10 [1]; 10 mg/kg) was 7.7 ± 0.2. For the same molecule, the “Time spent in the closed arms (c)” value (mice SAM P 10 [1]; 10 mg/kg) was 262.0 ± 22.1 c, the “Time spent in the opened arms (c)” value (mice SAM P 10 [1]; 10 mg/kg) was 23.9 ± 5.8 c and the “Number of entries the closed arms” value (mice SAM P 10 [1]; 20 mg/kg) was 19.3 ± 2.5. For the same molecule, the “Number of entries the opened arms” value (mice SAM P 10 [1]; 20 mg/kg) was 13.0 ± 1.1, the “Time spent in the closed arms (c)” value (mice SAM P 10 [1]; 20 mg/kg) was 234.8 ± 8.7 c and the “Time spent in the opened arms (c)” value (mice SAM P 10 [1]; 20 mg/kg) was 28.4 ± 6.2 c. For the same molecule, the “Period of active behaviour” value (mice SAM P 10 [2]; 10 mg/kg) was 190.00 ± 9.50 s, the “Period of active behaviour” value (mice SAM P 10 [2]; 20 mg/kg) was 225.00 ± 10.97 s and the LD16 [3] was 900 mg/kg. The LD84 [3] was 1450 mg/kg, the “Total affected area (percentage of volume of ipsilateral hemisphere)” value ([4]; 40 mg/kg after ischemia-inducing exposure) was 10.54±1.84% and the “Intensity of ischemic damage of cerebral cortex (slice score, points), slice 1” value [4, 5] was 0.08 ± 0.01 points. For the same molecule, the “Intensity of ischemic damage of cerebral cortex (slice score, points), slice 2” value [4, 5] was 0.92 ± 0.12 points, the “Intensity of ischemic damage of cerebral cortex (slice score, points), slice 3” value [4, 5] was 0.7 ± 0.19 points and the “Intensity of ischemic damage of cerebral cortex (slice score, points), slice 4” value [4, 5] was 0.58 ± 0.14 points. The “Intensity of ischemic damage of cerebral cortex (slice score, points), slice 5” value [4, 5] was 0.2 ± 0.15 points and the “Decrease of total affected extent versus control” value ([4]; 40 mg/kg, p<0.05) was 47.3%.
With O=C(O)CC[C@H](NC(=O)c1cncc(O)c1)C(=O)O [Nooglutyl, N-(5-hydroxynicotinoyl)-L-glutamic acid, reference compound] the “Total affected area (percentage of volume of ipsilateral hemisphere)” value ([4]; 50 mg/kg after ischemia-inducing exposure) was 14.3±2.14%, the “Intensity of ischemic damage of cerebral cortex (slice score, points), slice 1” value [4, 6] was 0.28 ± 0.06 points and the “Intensity of ischemic damage of cerebral cortex (slice score, points), slice 2” value [4, 6] was 1.12 ± 0.17 points. For the same molecule, the “Intensity of ischemic damage of cerebral cortex (slice score, points), slice 3” value [4, 6] was 1.01 ± 0.11 points, the “Intensity of ischemic damage of cerebral cortex (slice score, points), slice 4” value [4, 6] was 0.59 ± 0.19 points and the “Intensity of ischemic damage of cerebral cortex (slice score, points), slice 5” value [4, 6] was 0.18 ± 0.14 points.
